{"source": "paper PMC6957263", "about": "(Bioorganic & medicinal chemistry letters, 2013)", "key": {"[1]": {"target": "T1, human TRPV1 heterologously expressed in CHO cells (Homo sapiens, UniProt Q8NER1)", "T1 sequence (Q8NER1 whole entry)": "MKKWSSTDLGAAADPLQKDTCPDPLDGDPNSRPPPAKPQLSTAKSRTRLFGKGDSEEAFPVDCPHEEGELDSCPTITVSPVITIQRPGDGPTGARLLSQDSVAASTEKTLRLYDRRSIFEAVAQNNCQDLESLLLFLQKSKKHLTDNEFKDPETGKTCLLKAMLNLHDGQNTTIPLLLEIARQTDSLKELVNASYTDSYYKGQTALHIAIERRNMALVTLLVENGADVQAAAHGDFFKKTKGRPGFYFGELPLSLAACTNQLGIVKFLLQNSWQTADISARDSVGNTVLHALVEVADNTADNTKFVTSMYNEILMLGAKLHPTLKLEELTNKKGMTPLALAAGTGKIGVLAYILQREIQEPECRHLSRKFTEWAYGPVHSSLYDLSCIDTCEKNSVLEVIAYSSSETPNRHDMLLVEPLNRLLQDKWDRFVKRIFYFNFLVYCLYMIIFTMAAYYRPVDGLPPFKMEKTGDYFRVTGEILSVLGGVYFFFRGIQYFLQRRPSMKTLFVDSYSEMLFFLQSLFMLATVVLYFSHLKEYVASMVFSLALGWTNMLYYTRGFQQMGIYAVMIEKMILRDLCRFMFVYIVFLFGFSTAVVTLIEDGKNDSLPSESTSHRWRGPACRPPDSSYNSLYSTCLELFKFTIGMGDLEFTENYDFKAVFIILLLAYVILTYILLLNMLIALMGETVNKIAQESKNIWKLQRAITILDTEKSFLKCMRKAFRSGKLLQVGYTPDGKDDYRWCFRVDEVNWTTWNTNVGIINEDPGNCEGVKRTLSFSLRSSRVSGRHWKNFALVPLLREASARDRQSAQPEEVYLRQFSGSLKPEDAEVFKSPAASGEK", "assay": "binding competition assay with [3H]RTX", "settings": "for fold less potent than the racemate in binding affinity: 2S vs 2, 3S vs 3; for fold greater potency than the racemate in binding affinity: 2R vs 2, 3R vs 3"}, "[2]": {"target": "T1, human TRPV1 heterologously expressed in CHO cells", "assay": "functional 45Ca2+ uptake assay", "assay_type": "cell-based"}, "[3]": {"settings": "human TRPV1, within ca. x-fold of RTX"}}, "data": [{"compound": "CC(C)(C)C(=O)OC[C@H](CNC(=S)NCc1ccc(NS(C)(=O)=O)c(F)c1)Cc1ccc(C(C)(C)C)cc1", "note": "[Compound 3S]", "values": [{"measurement": "fold less potent than the racemate in binding affinity", "setting": "[1]; hTRPV1", "value": 3, "unit": "fold"}, {"measurement": "fold less potency compared to 3 in antagonism", "setting": "[2]; hTRPV1", "value": 1.3, "unit": "fold"}]}, {"compound": "COc1cc(CNC(=S)NC[C@H](COC(=O)C(C)(C)C)Cc2ccc(C(C)(C)C)cc2)ccc1O", "note": "[Compound 2R]", "values": [{"measurement": "fold greater potency than the racemate in binding affinity", "setting": "[1]; hTRPV1", "value": 2, "unit": "fold"}, {"measurement": "fold greater potency than the racemate 2 in agonism", "setting": "[2]; hTRPV1", "value": 1.5, "unit": "fold"}]}, {"compound": "COc1cc(CNC(=S)NC[C@@H](COC(=O)C(C)(C)C)Cc2ccc(C(C)(C)C)cc2)ccc1O", "note": "[Compound 2S]", "values": [{"measurement": "fold less potent than the racemate in binding affinity", "setting": "[1]; hTRPV1", "value": 1.1, "unit": "fold"}, {"measurement": "fold less potent than 2 in agonism", "setting": "[2]; hTRPV1", "value": 7, "unit": "fold"}]}, {"compound": "CC(C)(C)C(=O)OCC(CNC(=S)NCc1ccc(NS(C)(=O)=O)c(F)c1)Cc1ccc(C(C)(C)C)cc1", "note": "(stereo not drawn) [Compound 3]", "values": [{"measurement": "fold less potent than I-RTX in binding affinity", "setting": "[1]; hTRPV1", "value": "ca. 2 fold"}, {"measurement": "fold less potent than I-RTX in antagonism", "setting": "[2]; hTRPV1", "value": "~20", "unit": "fold"}]}, {"compound": "CC(C)(C)C(=O)OC[C@@H](CNC(=S)NCc1ccc(NS(C)(=O)=O)c(F)c1)Cc1ccc(C(C)(C)C)cc1", "note": "[Compound 3R]", "values": [{"measurement": "fold greater potency than the racemate in binding affinity", "setting": "[1]; hTRPV1", "value": 1.3, "unit": "fold"}, {"measurement": "fold greater potency than 3 in antagonism", "setting": "[2]; hTRPV1", "value": 1.3, "unit": "fold"}]}, {"compound": "COc1cc(CNC(=S)NCC(COC(=O)C(C)(C)C)Cc2ccc(C(C)(C)C)cc2)ccc1O", "note": "(stereo not drawn) [Compound 2]", "values": [{"measurement": "fold of the potency of RTX in binding affinity", "setting": "[1]; [3]", "value": "ca. 5 fold"}, {"measurement": "fold of the potency of RTX in agonism", "setting": "[2]; [3]", "value": "~1.5", "unit": "fold"}]}]}
